Data: PubChem BioAssay AID732 (Emory University Molecular Libraries Screening Center, 2007)
Calls of active or inactive are those of the source. The rule behind the calls is not given here.

System: in vivo angiogenesis, blood vessel count
Assay: reduction of blood vessel formation in vivo – HTS, in vivo study (AID 732);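 note: zebrafish embryos dosed at one day post fertilization; 0% = reference inhibitor and 100% = plate mean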
Conditions: stronger effect = lower value;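 tested at 30 µM in the well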

SMILES	vessel count % control
C=CCN1CC[C@]23CCCCC2[C@H]1Cc1ccc(O)cc13 (stereo not given in full)	141% (inactive)
CCCn1c(=O)c2[nH]c(-c3ccc(OCC(=O)Nc4ccc(C#N)cc4)cc3)nc2n(CCC)c1=O	84.9% (inactive)
CC(CN(C)C)CN1c2ccccc2CCc2ccccc21 (stereo not given)	97.1% (inactive)
CC(Cc1ccc(OCC(=O)O)cc1)NCC(O)c1cccc(Cl)c1 (stereo not given)	97.7% (inactive)
Cc1c2ccncc2c(C)c2c1[nH]c1ccccc12	110% (inactive)
CNCCC(Oc1ccccc1C)c1ccccc1 (stereo not given)	122% (inactive)
CCN(CC)CCNC(=O)c1ccc(NC(C)=O)cc1	117% (inactive)
N[C@H]1CONC1=O	93% (inactive)
CC(=O)NCCc1c[nH]c2ccc(O)cc12	101% (inactive)
COC(=O)[C@@H]1[C@H]2C[C@H]3c4[nH]c5ccccc5c4CCN3C[C@@H]2CC[C@@H]1O	95.4% (inactive)
OC(CN1CCC(Cc2ccc(F)cc2)CC1)c1ccc(Cl)cc1 (stereo not given)	61.6% (inactive)
CCCN(CCC)[C@@H]1CCc2ccc(O)cc2C1	93.2% (inactive)
Cc1c(C(=O)c2cccc3ccccc23)c2cccc3c2n1[C@H](CN1CCOCC1)CO3	0% (inactive)
C=C(C)C1CC=C(C(=O)O)CC1 (stereo not given)	109% (inactive)
COc1ccccc1N1CCN(CCCNc2c(C)c(=O)n(C)c(=O)n2C)CC1	70.6% (inactive)
N[C@@H](Cc1c[nH]c2ccc(O)cc12)C(=O)O	81.8% (inactive)
OCCN1CCN(CCCN2c3ccccc3Sc3ccc(Cl)cc32)CC1	99.2% (inactive)
COc1ccc2c(c1)c(CC(=O)O)c(C)n2Cc1ccc(Cl)cc1	109% (inactive)
CCCCS(=N)(=O)CCC(N)C(=O)O (stereo not given)	137% (inactive)
Nc1ncnc2c1ncn2[C@@H]1O[C@H](CO)[C@H](O)C1O (stereo not given in full)	105% (inactive)

SMILES	vessel count % control
O=C1NC(=O)C(c2ccccc2[N+](=O)[O-])=C1Nc1ccc(O)c(Cl)c1	105% (inactive)
CCCCCCCCCCCCC/C=C/C(O)C(N)CO (stereo not given)	112% (inactive)
N[C@@H](Cc1ccc(O)c(I)c1)C(=O)O	108% (inactive)
CCCn1c(=O)c2[nH]c(C3CCCC3)nc2n(CCC)c1=O	78.9% (inactive)
N[C@@H](CC(=O)O)C(=O)O	94.7% (inactive)
O=C1NCC2(CCN(CCc3ccccc3)CC2)O1	110% (inactive)
O=C(O)[C@@H]1C[C@@H](C(=O)O)N1	99.6% (inactive)
NC(N)=NC(N)=Nc1ccccc1	72.6% (inactive)
N#Cc1cc2nc(O)c(O)nc2cc1[N+](=O)[O-]	94.9% (inactive)
CCC1(C2=NCCN2)Cc2ccccc2O1 (stereo not given)	68.5% (inactive)
O=C(O)C1=CCCN(CCON=C(c2ccccc2)c2ccccc2)C1	104% (inactive)
CC(C)[N+](C)(CCOC(=O)C1c2ccccc2Oc2ccccc21)C(C)C	134% (inactive)
CCCC[N+]1(C)C2CC(OC(=O)[C@H](CO)c3ccccc3)CC1C1OC12 (stereo not given in full)	107% (inactive)
O=C(O)c1cccnc1Nc1cccc(C(F)(F)F)c1	102% (inactive)
CN=C(N)NCCC[C@H](N)C(=O)O	93% (inactive)
COc1cccc(OC)c1OCCNCC1CSc2ccccc2O1 (stereo not given)	71.1% (inactive)
O=C(O)CCCC[C@@H]1CCSS1	100% (inactive)
CN1C2CCC1CC(OC(=O)c1cc(Cl)cc(Cl)c1)C2 (stereo not given)	77% (inactive)
O=c1[nH]cc(F)c(=O)[nH]1	111% (inactive)
COc1ccccc1N1CCN(CCCNc2cc(=O)n(C)c(=O)n2C)CC1	111% (inactive)
